Here are results for 2 compounds from patent US12631644B2, “Biomarker panel targeted to diseases due to multifactorial ontology of glycocalyx disruption” (Arterez, Inc., priority 2019, dated 2026).

In one series the test system is inflammation and plaque. Kind of series: Average disease scores (aortic sinus histology) in high-fat diet mice, Example 1. It counts as in vivo, mouse. The following applies: FIG. 9; per group and time point; gavage 150 μmol/kg. Here is the method:
For a pilot study, forty-eight 10-week old male C57/Bl6 mice were obtained from Jackson Laboratories. Three mice were raised from 6 weeks on a regular diet and served as controls, and the remaining 45 were raised on a 60% fat diet (D12451, DIO series diet, Opensource Diets). For a bacterial dosage test, sixteen 10-week old male C57/Bl6 mice were divided into four treatment groups and maintained on a normal diet.
3,3′,4,4′-Tetrachlorobiphenyl (PCB-77) was obtained from Neosyn Laboratories. 100 mg of the dry chemical was suspended in 15.22 ml of corn oil to deliver 150 μmol/kg in 0.2 ml per mouse. […]
The hearts were prepared as frozen sections: they were mounted in blocks, and 10 μm-thick sections were cut through the aortic valve, to yield 30 sections per mouse. […] Multiple 10-μm sections at the level of the aortic sinus were analyzed for the presence of Oil Red O lipid staining, plaque size, amount of fibrous tissue, and inflammation. The percentage of the lumen occupied by the first three features was calculated using Image Pro Plus. […] The level of inflammation in each section was scored on the following scale: 0=no inflammatory cells observed, 1=few macrophages with no giant cells, 2=foam cells present, 3=foam cells with cholesterol, 4=foam cells, giant cells, and cholesterol present. […]

The next series addresses T1, TNF-α (Homo sapiens, UniProt P01375).
T1 construct: host or cells: human subjects (in vivo, endogenous TNF-α)
The following applies: humans; 2009 Atherosclerosis 202:296-303; cited from earlier work.

T1 sequence (P01375 77-233 limits assumed): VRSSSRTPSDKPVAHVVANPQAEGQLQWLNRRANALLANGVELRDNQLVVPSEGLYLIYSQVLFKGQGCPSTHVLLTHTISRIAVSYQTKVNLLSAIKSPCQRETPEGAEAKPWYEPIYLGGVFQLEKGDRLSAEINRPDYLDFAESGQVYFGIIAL

Take `Clc1ccc(-c2ccc(Cl)c(Cl)c2)cc1Cl` [PCB77, 3,3′,4,4′-Tetrachlorobiphenyl]: the “risk factor for producing inflammation and plaque (average disease scores)” value in the series with inflammation and plaque was “most significant risk factor to producing inflammation and plaque”.
Take etanercept: at TNF-α, the “shedding of glycocalyx constituents, coagulation activation, vessel function” value is “reduces the shedding of glycocalyx constituents, coagulation activation, and functional vessel function”.
